# Test results reported in patent US20130143915A1, “TRIAZOLOPYRIDINES AS TYK2 INHIBITORS” (CELLZOME LIMITED, priority 2010, published 2013).
# Columns and labels:
# TYK2 = target: T1, TYK2 (Homo sapiens, UniProt P29597); experiment: Kinobeads assay, TYK2 (competition binding in mixed Molt4/Ramos cell lysate, dot blot detection)
# T1 construct: endogenous in cells; host or cells: mixed Molt4/Ramos cell lysate (1:2)
# Description: (§1) The compounds of the present invention as described in the previous examples were tested in a Kinobeads™ assay as described for ZAP-70 (WO-A 2007/137867). Briefly, test compounds (at various concentrations) and the affinity matrix with the immobilized aminopyrido-pyrimidine ligand 24 were added to cell lysate aliquots and allowed to bind to the proteins in the lysate sample. After the incubation time the beads with captured proteins were separated from the lysate. Bound proteins were then eluted and the presence of TYK2 and JAK2 was detected and quantified using specific antibodies in a dot blot procedure and the Odyssey infrared detection system. Dose response curves for individual kinases were generated and IC50 values calculated. Kinobeads™ assays have been previously described (WO-A 2007/137867; WO-A 2006/134056).
# (§2) The affinity matrix was washed two times with 15 mL of 1×DP buffer containing 0.2% NP40 (IGEPAL® CA-630, Sigma, #13021) and then resuspended in 1×DP buffer containing 0.2% NP40 (3% beads slurry).
# (§3) 5×DP buffer: 250 mM Tris-HCl pH 7.4, 25% Glycerol, 7.5 mM MgCl2, 750 mM NaCl, 5 mM Na3VO4; filter the 5×DP buffer through a 0.22 μm filter and store in aliquots at −80° C. The 5×DP buffer is diluted with H2O to 1×DP buffer containing 1 mM DTT and 25 mM NaF.
# (§4) Stock solutions of test compounds were prepared in DMSO. In a 96 well plate 30 μL solution of diluted test compounds at 5 mM in DMSO were prepared. Starting with this solution a 1:3 dilution series (9 steps) was prepared. For control experiments (no test compound) a buffer containing 2% DMSO was used.
# (§5) Molt4 cells (ATCC catalogue number CRL-1582) and Ramos cells (ATCC catalogue number CRL-1596) were grown in 1 L Spinner flasks (Integra Biosciences, #182101) in suspension in RPMI 1640 medium (Invitrogen, #21875-034) supplemented with 10% Fetal Bovine Serum (Invitrogen) at a density between 0.15×10^6 and 1.2×10^6 cells/mL. Cells were harvested by centrifugation, washed once with 1×PBS buffer (Invitrogen, #14190-094) and cell pellets were frozen in liquid nitrogen and subsequently stored at −80° C. Cells were homogenized in a Potter S homogenizer in lysis buffer: 50 mM Tris-HCl, 0.8% NP40, 5% glycerol, 150 mM NaCl, 1.5 mM MgCl2, 25 mM NaF, 1 mM sodium vanadate, 1 mM DTT, pH 7.5. One complete EDTA-free tablet (protease inhibitor cocktail, Roche Diagnostics, 1873580) per 25 mL buffer was added. The material was dounced 10 times using a mechanized POTTER S, transferred to 50 mL falcon tubes, incubated for 30 minutes on ice and spun down for 10 minutes at 20,000 g at 4° C. (10,000 rpm in Sorvall SLA600, precooled). The supernatant was transferred to an ultracentrifuge (UZ)-polycarbonate tube (Beckmann, 355654) and spun for 1 hour at 100.000 g at 4° C. (33.500 rpm in Ti50.2, precooled). The supernatant was transferred again to a fresh 50 mL falcon tube, the protein concentration was determined by a Bradford assay (BioRad) and samples containing 50 mg of protein per aliquot were prepared. The samples were immediately used for experiments or frozen in liquid nitrogen and stored frozen at −80° C.
# (§6) Cell lysate (approximately 50 mg protein per plate) was thawed in a water bath at room temperature and then stored on ice. To the thawed cell lysate 1×DP 0.8% NP40 buffer containing protease inhibitors (1 tablet for 25 mL buffer; EDTA-free protease inhibitor cocktail; Roche Diagnostics 1873580) was added in order to reach a final protein concentration of 10 mg/mL total protein. The diluted cell lysate was stored on ice. Mixed Molt4/Ramos lysate was prepared by combining one volume of Molt4 lysate and two volumes of Ramos lysate (ratio 1:2).
# (§7) To a 96 well filter plate (Multiscreen HTS, BV Filter Plates, Millipore #MSBVN1250) were
# (§8) added per well: 100 μL affinity matrix (3% beads slurry), 3 μL of compound solution, and 50 μL of diluted lysate. Plates were sealed and incubated for 3 hours in a cold room on a plate shaker (Heidolph tiramax 1000) at 750 rpm. […]
# JAK2 = target: T2, JAK2 (Homo sapiens, UniProt O60674); experiment: Kinobeads assay, JAK2 (competition binding in mixed Molt4/Ramos cell lysate, dot blot detection)
# T2 construct: endogenous in cells; host or cells: mixed Molt4/Ramos cell lysate (1:2)
# Description: as §1, §2, §3, §4, §5, §6, §7, §8
# T1 sequence (P29597 whole entry): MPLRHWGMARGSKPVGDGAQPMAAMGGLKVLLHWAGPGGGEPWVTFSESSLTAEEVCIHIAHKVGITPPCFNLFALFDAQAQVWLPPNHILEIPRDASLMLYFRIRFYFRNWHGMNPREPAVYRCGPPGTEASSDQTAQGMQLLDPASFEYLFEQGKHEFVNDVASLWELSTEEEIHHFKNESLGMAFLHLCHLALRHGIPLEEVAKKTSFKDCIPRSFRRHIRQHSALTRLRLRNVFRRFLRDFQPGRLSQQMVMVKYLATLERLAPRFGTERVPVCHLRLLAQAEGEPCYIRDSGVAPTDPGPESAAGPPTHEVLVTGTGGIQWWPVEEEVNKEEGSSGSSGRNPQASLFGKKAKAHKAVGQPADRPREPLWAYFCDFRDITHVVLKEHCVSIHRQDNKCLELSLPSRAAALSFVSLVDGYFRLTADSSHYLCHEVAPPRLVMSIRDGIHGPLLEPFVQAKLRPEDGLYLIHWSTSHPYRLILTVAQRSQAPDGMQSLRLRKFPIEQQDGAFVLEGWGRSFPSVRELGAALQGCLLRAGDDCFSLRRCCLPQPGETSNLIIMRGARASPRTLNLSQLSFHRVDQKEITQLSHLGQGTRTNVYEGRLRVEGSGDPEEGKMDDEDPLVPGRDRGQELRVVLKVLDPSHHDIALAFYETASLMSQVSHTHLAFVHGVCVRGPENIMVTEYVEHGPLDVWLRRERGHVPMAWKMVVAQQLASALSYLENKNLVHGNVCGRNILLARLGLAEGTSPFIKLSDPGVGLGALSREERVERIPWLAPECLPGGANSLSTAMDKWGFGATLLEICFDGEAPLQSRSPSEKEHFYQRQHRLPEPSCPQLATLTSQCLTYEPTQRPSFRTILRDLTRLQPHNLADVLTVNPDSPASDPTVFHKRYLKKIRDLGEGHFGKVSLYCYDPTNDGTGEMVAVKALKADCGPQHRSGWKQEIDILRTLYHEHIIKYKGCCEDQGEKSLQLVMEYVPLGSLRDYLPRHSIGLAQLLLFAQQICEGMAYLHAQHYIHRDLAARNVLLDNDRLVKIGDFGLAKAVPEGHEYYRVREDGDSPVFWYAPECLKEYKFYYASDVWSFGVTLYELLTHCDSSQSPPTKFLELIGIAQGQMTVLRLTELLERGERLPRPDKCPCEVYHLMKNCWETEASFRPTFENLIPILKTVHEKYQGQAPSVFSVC
# T2 sequence (O60674 whole entry): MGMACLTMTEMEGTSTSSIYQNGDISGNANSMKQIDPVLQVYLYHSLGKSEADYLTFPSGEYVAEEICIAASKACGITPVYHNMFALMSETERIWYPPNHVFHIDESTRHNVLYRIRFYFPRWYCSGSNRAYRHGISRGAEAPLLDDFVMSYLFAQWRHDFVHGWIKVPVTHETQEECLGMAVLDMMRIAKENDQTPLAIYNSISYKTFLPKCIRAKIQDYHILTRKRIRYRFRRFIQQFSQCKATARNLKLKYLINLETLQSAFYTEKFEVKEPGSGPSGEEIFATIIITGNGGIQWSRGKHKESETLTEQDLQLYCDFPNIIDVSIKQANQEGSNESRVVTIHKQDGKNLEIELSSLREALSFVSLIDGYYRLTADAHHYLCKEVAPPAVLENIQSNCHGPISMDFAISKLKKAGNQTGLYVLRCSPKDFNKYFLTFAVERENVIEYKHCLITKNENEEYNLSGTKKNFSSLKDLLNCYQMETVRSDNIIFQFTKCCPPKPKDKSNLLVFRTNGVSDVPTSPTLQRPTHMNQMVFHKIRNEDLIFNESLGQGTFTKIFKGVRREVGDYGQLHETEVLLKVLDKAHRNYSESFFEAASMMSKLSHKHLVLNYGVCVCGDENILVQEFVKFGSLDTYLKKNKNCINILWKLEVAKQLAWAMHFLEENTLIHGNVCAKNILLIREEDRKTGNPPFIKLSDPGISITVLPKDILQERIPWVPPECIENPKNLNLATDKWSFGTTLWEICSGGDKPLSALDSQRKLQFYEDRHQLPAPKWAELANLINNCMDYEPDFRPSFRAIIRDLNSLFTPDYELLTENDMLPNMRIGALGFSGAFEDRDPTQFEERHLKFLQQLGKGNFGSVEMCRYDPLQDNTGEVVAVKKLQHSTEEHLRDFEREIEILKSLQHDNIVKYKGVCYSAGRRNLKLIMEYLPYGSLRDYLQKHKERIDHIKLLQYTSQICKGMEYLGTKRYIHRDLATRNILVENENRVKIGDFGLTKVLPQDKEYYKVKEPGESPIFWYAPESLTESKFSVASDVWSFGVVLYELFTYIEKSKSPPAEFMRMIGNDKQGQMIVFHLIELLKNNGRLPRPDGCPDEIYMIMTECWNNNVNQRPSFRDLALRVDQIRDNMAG
SMILES,IC50 (TYK2),IC50 (JAK2)
"Cc1ccc(-c2cccc3nc(NC(=O)C4CC4)nn23)c(C)c1 [Example 12, N-(5-(2,4-dimethylphenyl)-[1,2,4]triazolo[1,5-a]pyridin-2-yl)cyclopropanecarboxamide]",100 to 1000 nM,> 10000 nM
"COc1ccc(-c2cccc3nc(NC(=O)C4CC4)nn23)c(C(F)(F)F)c1 [Example 3, N-(5-(4-methoxy-2-(trifluoromethyl)phenyl)-[1,2,4]triazolo[1,5-a]pyridin-2-yl)cyclopropanecarboxamide]",1000 to 10000 nM,> 10000 nM
"O=C(Nc1nc2cccc(-c3ccc(Cl)cc3Cl)n2n1)C1CC1 [Example 2, N-(5-(2,4-dichlorophenyl)-[1,2,4]triazolo[1,5-a]pyridin-2-yl)cyclopropanecarboxamide]",100 to 1000 nM,> 10000 nM
"CS(=O)(=O)Nc1ccc(-c2cccc3nc(NC(=O)C4CC4)nn23)c(F)c1 [Example 9, N-(5-(2-fluoro-4-(methylsulfonamido)phenyl)-[1,2,4]triazolo[1,5-a]pyridin-2-yl)cyclopropanecarboxamide]",100 to 1000 nM,> 10000 nM
"COc1ccc(-c2cccc3nc(NC(=O)C4CC4)nn23)c(Cl)c1 [Example 4, N-(5-(2-chloro-4-methoxyphenyl)-[1,2,4]triazolo[1,5-a]pyridin-2-yl)cyclopropanecarboxamide]",100 to 1000 nM,> 10000 nM
"COc1ccc(-c2cccc3nc(NC(=O)C4CC4)nn23)c(C)c1 [Example 10, N-(5-(4-methoxy-2-methylphenyl)-[1,2,4]triazolo[1,5-a]pyridin-2-yl)cyclopropanecarboxamide]",100 to 1000 nM,> 10000 nM
"COc1ccc(-c2cccc3nc(NC(=O)C4CC4)nn23)c(F)c1 [Example 1, N-(5-(2-fluoro-4-methoxyphenyl)-[1,2,4]triazolo[1,5-a]pyridin-2-yl)cyclopropane carboxamide]",100 to 1000 nM,> 10000 nM
"Nc1ccc(-c2cccc3nc(NC(=O)C4CC4)nn23)c(F)c1 [Example 7, N-(5-(4-amino-2-fluorophenyl)-[1,2,4]triazolo[1,5-a]pyridin-2-yl)cyclopropanecarboxamide]",100 to 1000 nM,> 10000 nM

# Second part, the molecule after the results:
IC50 (TYK2),IC50 (JAK2),SMILES
100 to 1000 nM,> 10000 nM,"Nc1ccc(-c2cccc3nc(NC(=O)C4CC4)nn23)c(Cl)c1 [Example 6, N-(5-(4-amino-2-chlorophenyl)-[1,2,4]triazolo[1,5-a]pyridin-2-yl)cyclopropanecarboxamide]"
100 to 1000 nM,> 10000 nM,"CS(=O)(=O)c1ccc(-c2cccc3nc(NC(=O)C4CC4)nn23)c(F)c1 [Example 5, N-(5-(2-fluoro-4-(methylsulfonyl)phenyl)-[1,2,4]triazolo[1,5-a]pyridin-2-yl)cyclopropanecarboxamide]"
100 to 1000 nM,> 10000 nM,"CS(=O)(=O)Nc1ccc(-c2cccc3nc(NC(=O)C4CC4)nn23)c(Cl)c1 [Example 8, N-(5-(2-chloro-4-(methylsulfonamido)phenyl)-[1,2,4]triazolo[1,5-a]pyridin-2-yl)cyclopropanecarboxamide]"
< 100 nM,> 10000 nM,O=C(Nc1nc2cccc(-c3ccc(NS(=O)(=O)C4CC4)cc3Cl)n2n1)C1CC1 [Example 11]
